Assay results from patent publication US4855321A, “Antihypercholesterolemic compounds” (Merck & Co., Inc., priority 1988, dated 1989).

Tested on: HMG-CoA reductase
Experiment: HMG-CoA Reductase Inhibition Assay (in vitro, [14C]HMG-CoA, relative to compactin)
Format: biochemical, rat (male Holtzman Sprague-Dawley)
Details: compactin assigned 100; IC50 of test compound compared with that of compactin determined simultaneously; pH 7.2, 40 min, 37° C.; lactone converted in situ to sodium salt of dihydroxy acid
Procedure: The intrinsic HMG-CoA reductase inhibition activity of the claimed compounds is measured in the in vitro protocol published in J. Med. Chem., 28, p. 347-358 (1985) and described below:
Male Holtzman Sprague-Dawley rats (225-250 g) were kept on reversed lighting and fed Purina rat chow containing 3% cholestyramine for 7 days preceding their sacrifice by CO2 asphyxiation. Livers were removed 6 hours into the dark cycle and used immediately to prepare microsomes. […]
Test compounds or compactin (after first being converted to the sodium salt of their dihydroxy acid form in situ by addition of 1N NaOH (1 equivalent) were added to the assay system in 10-μl volumes at multiconcentration levels. After a 40-minute incubation at 37° C. to ensure the complete lactionization of mevalonic acid to mevalonolactone, 0.2 ml of the mixture was added to an 0.5×5.0 cm column containing 100-200 mesh BioRex 5, chloride form (Bio-Rad), wetted with distilled water, as described by Alberts et al., [J. Proc. Natl. Acad. Sci. U.S.A., 1980, 77, 3957]. The unreacted [^14 C]HMG-CoA was absorbed on the resin and the [^14 C] mevalonolactone was eluted with distilled water (2×1 ml) directly into 7-ml scintillation vials. Five milliliters of Aquasol-2 (New England Nuclear) was added to each vial, and radioactivity was measured in a Packard Tri Carb Prias scintillation counter. […]

relative potency (intrinsic HMG-CoA reductase inhibitory activity) when compared to compactin at 100: 26.5
SMILES: Cc1cc(C)c(/C=C/[C@H]2C[C@H](O)CC(=O)O2)c(-c2ccc(F)c(CO)c2)c1 (relative stereo) [trans-(E)-6-[2-[4'-fluoro-3'-(hydroxymethyl)-3,5-dimethyl[1,1'-biphenyl]-2-yl]ethenyl]-3,4,5,6-tetrahydro-4-hydroxy-2H-pyran-2-one]
